Laboratory results from patent publication EP0352248A1, “Nucleoside derivatives” (priority 1988, dated 1990).

Legend:
Assay type in all cases: cell-based
HIV (HTLV-IIIB) = assay: Effect on HIV in H9 cells (frequency of HIV antigen containing cells, immunofluorescence); details: Human immunodeficiency virus 1; H9 cells exposed to HIV (HTLV-IIIB), 6-7 days; read-out: Concentration (µM) for 50 % inhibition (IC₅₀) of human immuno deficiency virus multiplication in cell culture
Protocol: Test I Effect of compounds of the formula I on HIV in H9 cells
Materials and methods: HIV infection of H9 cells
H9 cells, 10⁵ cells per well on a 24 well plate, suspended in 2 ml RPMI-medium containing 10 % fetal calf serum, 100 µg/ml penicillin, 10 µg/ml streptomycin sulfate and 2 µg/ml polybrene are exposed to HIV (HTLV-IIIB) and different concentrations of the test compounds. The plates are incubated at 37°C in 5 % CO₂ for 6-7 days. The contents in each well is then homogenized with a pipette and transferred to a centrifuge tube. After centrifugation for 10 min at 1500 rpm the supernatant is removed and the cell pellet is analyzed by fixing in methanol on glass plates. Human HIV positive serum diluted 1:80 or 1:160 is added and incubated for 30 min at 37°C. The plate is then washed with phosphate-buffered saline (PBS) containing Ca²⁺ and Mg²⁺. Sheep anti-human conjugate (FITC) is added and after a new incubation the plate is again washed with PBS. Contrast straining is done with Evans blue and after drying the frequency of HIV antigen containing cells is determined in a microscope.

H9 cells = assay: Cellular toxicity, inhibition of cell multiplication, H9 cells; details: conc. 200 µM, cell number after 48 h
Protocol: (§1) Test II Cellular toxicity
H9 cells, 2x10⁷ cells per plate, are incubated in RPMI-1640 medium containing 10 % fetal calf serum, 70 mg/l penicillin, 100 mg/l streptomycin and 10 mM hepes, in absence or presence of test compounds. The number of cells per plate is determined after 48 h. Cells incubated in the absence of test compounds then underwent two cell division cycles.
F5000 cells, which are human embryo cells, 1x10⁵ cells per plate, are incubated in Eagle's minimal essential medium, supplemented with Earle's salts, non-essential amino acids, 10 % fetal calf serum, 10 mM hepes, 70 mg/l penicillin and 100 mg/l streptomycin, in absence or presence of test compounds. The number of cells per plate is determined after 48 h. Cells incubated in the absence of test compounds underwent one cell division cycle. […]

F5000 cells = assay: Cellular toxicity, inhibition of cell multiplication, F5000 cells; details: F5000 cells (human embryo cells), conc. 100 µM, cell number after 48 h
Protocol: as §1
F5000 cells, which are human embryo cells, 1x10⁵ cells per plate, are incubated in Eagle's minimal essential medium, supplemented with Earle's salts, non-essential amino acids, 10 % fetal calf serum, 10 mM hepes, 70 mg/l penicillin and 100 mg/l streptomycin, in absence or presence of test compounds. The number of cells per plate is determined after 48 h. Cells incubated in the absence of test compounds underwent one cell division cycle. The results are given as % inhibition of cell multiplication when the concentration of the compound is 100 µM or 250 µM.

Compound: Nc1ccn(C2CC[C@H](CO)O2)c(=O)n1 (stereo partly drawn) [VSB 815, 1-(2,3-Dideoxy-alpha,beta-L-ribofuranosyl)-cytosine]
- IC50 (HIV (HTLV-IIIB)): < 1 µM
- % Inhibition H9 (H9 cells): 35 (200) %
- % Inhibition F5000 (F5000 cells): 55 (100) %
